Several values for one entry are separate records, joined by “and”; a condition that tells them apart may be missing. Equal values may be shown once. Inconclusive results and toxic doses are left out. Numbered stars: 1 amine (or outer) side, 2 acyl side, 3 side chain; on linkers, the order of the positions; unused ones are H or OH. Bridge positions count the residues as written; N and C are the ends. Square brackets hold non-standard residues; d marks the D form. Peptide text beside a SMILES is read from it. I, II: the chains in the order shown. Actinocin(9to1) = Cc1c2oc3c(C)ccc(C(=O)[*:1])c3nc-2c(C(=O)[*:2])c(N)c1=O; NMeV = CN[CH](C(=O)O)C(C)C; Aze = O=C(O)[CH]1CCN1; Sar = CNCC(=O)O
System: BDF1 mice, Lewis lung carcinoma iv, survival T/C
Assay: NCI In Vivo Anticancer Drug Screen. Data for tumor model Lewis Lung Carcinoma (intravenous) in B6D2F1 (BDF1) mice
Conditions: endpoint: median survival time, higher = longer survival
Description: The antitumor activity of compounds was measured in mice bearing transplantable tumors. Survival or tumor size were measured and the results are expressed as the measurement made in the treated group (T) divided by the measurement made in the vehicle treated control group (C). The tumor model used in this assay is Lewis Lung Carcinoma (intravenous) in B6D2F1 (BDF1) mice

[1] = dose: 3.13 mg/kg/injection, schedule: Q01DX009 (ip), vehicle: Klucel (hydroxypropylcellulose) (HPC)
[2] = dose: 6.25 mg/kg/injection, schedule: Q01DX009 (ip), vehicle: Klucel (hydroxypropylcellulose) (HPC)
[3] = dose: 12.5 mg/kg/injection, schedule: Q01DX009 (ip), vehicle: saline with Tween-80
[4] = dose: 25.0 mg/kg/injection, schedule: Q01DX009 (ip), vehicle: saline with Tween-80
[5] = dose: 50.0 mg/kg/injection, schedule: Q01DX009 (ip), vehicle: saline with Tween-80
[6] = dose: 100.0 mg/kg/injection, schedule: Q01DX009 (ip), vehicle: saline with Tween-80
[7] = dose: 12.5 mg/kg/injection, schedule: Q01DX009 (ip), vehicle: Klucel (hydroxypropylcellulose) (HPC)
[8] = dose: 25.0 mg/kg/injection, schedule: Q01DX009 (ip), vehicle: Klucel (hydroxypropylcellulose) (HPC)
[9] = dose: 50.0 mg/kg/injection, schedule: Q01DX009 (ip), vehicle: Klucel (hydroxypropylcellulose) (HPC)
[10] = dose: 100.0 mg/kg/injection, schedule: Q01DX009 (ip), vehicle: Klucel (hydroxypropylcellulose) (HPC)
[11] = dose: 400.0 mg/kg/injection, schedule: Q01DX009 (ip), vehicle: Klucel (hydroxypropylcellulose) (HPC)
[12] = dose: 100.0 mg/kg/injection, schedule: Q01DX009 (ip), vehicle: saline
[13] = dose: 200.0 mg/kg/injection, schedule: Q01DX009 (ip), vehicle: saline

Cc1c2oc3c(C)ccc(C(=O)NC4C(=O)NC(C(C)C)C(=O)N5CCC5C(=O)N(C)CC(=O)N(C)C(C(C)C)C(=O)OC4C)c3nc-2c(C(=O)NC2C(=O)NC(C(C)C)C(=O)N3CCC3C(=O)N(C)CC(=O)N(C)C(C(C)C)C(=O)OC2C)c(N)c1=O (stereo not drawn) (I: TV[Aze][Sar][NMeV] / II: TV[Aze][Sar][NMeV]; ester I:1-I:C, II:1-II:C; linker I:N-II:N via Actinocin(9to1); configuration not given here)
T/C (dose: 194.0 micrograms/kg/injection, schedule: Q04DX003 (ip), vehicle: saline + alcohol): 87 % of control | T/C (dose: 270.0 micrograms/kg/injection, schedule: Q04DX003 (ip), vehicle: saline + alcohol): 94 % of control | T/C (dose: 324.0 micrograms/kg/injection, schedule: Q04DX003 (ip), vehicle: saline + alcohol): 95 % of control | T/C (dose: 450.0 micrograms/kg/injection, schedule: Q04DX003 (ip), vehicle: saline + alcohol): 95 % of control | T/C (dose: 540.0 micrograms/kg/injection, schedule: Q04DX003 (ip), vehicle: saline + alcohol): 109 % of control | T/C (dose: 648.0 micrograms/kg/injection, schedule: Q01DX001 (ip), vehicle: saline + alcohol): 97 % of control | T/C (dose: 750.0 micrograms/kg/injection, schedule: Q04DX003 (ip), vehicle: saline + alcohol): 108 % of control | T/C (dose: 1080.0 micrograms/kg/injection, schedule: Q01DX001 (ip), vehicle: saline + alcohol): 98 % of control

C1CCC2[N-]CC3CCCCC3[N-]CC3CCCCC3[N-]CC3CCCCC3[N-]CC2C1.[Cu] (stereo not drawn)
T/C (dose: 0.78 mg/kg/injection, schedule: Q01DX009 (ip), vehicle: Klucel (hydroxypropylcellulose) (HPC)): 106 % of control | T/C [1]: 112 % of control | T/C [2]: 113 % of control

O=C(O)c1ccc(C(=O)O)c(C(=O)O)c1.[NH-]C1CCCCC1[NH-].[Pt+2]
T/C (dose: 0.39 mg/kg/injection, schedule: Q01DX009 (ip), vehicle: sodium bicarbonate): 90 % of control | T/C (dose: 0.78 mg/kg/injection, schedule: Q01DX009 (ip), vehicle: sodium bicarbonate): 100 % of control | T/C (dose: 1.56 mg/kg/injection, schedule: Q01DX009 (ip), vehicle: sodium bicarbonate): 112 % of control | T/C (dose: 3.12 mg/kg/injection, schedule: Q01DX009 (ip), vehicle: sodium bicarbonate): 122 % of control

Nc1ccn(C2OC(COC(=O)C34CC5CC(CC(C5)C3)C4)C(O)C2O)c(=O)n1 (stereo not drawn)
T/C [3]: 116 % of control

ClC1(c2ccccc2)c2ccc(Br)cc2-c2cc(Br)ccc21
T/C [4]: 102 % of control | T/C [5]: 105 % of control | T/C [6]: 110 % of control

CC(=O)OCC(=O)[C@@]12OC(C)(C)O[C@@H]1C[C@H]1[C@@H]3CC(C=O)=C4C=C(OCCCl)CC[C@]4(C)[C@@]3(F)[C@@H](O)C[C@@]12C
T/C (dose: 1.56 mg/kg/injection, schedule: Q01DX009 (ip), vehicle: Klucel (hydroxypropylcellulose) (HPC)): 104 % of control | T/C (dose: 3.12 mg/kg/injection, schedule: Q01DX009 (ip), vehicle: Klucel (hydroxypropylcellulose) (HPC)): 100 % of control | T/C [1]: 110 % of control | T/C [2]: 102 % of control and 112 % of control | T/C [7]: 104 % of control and 121 % of control

O=P1(N(CCCl)CCCl)NCCCO1 (stereo not drawn)
T/C (dose: 39.0 mg/kg/injection, schedule: Q01DX001 (ip), vehicle: saline): 119 % of control | T/C (dose: 50.0 mg/kg/injection, schedule: Q01DX001 (ip), vehicle: saline): 155 % of control | T/C (dose: 78.0 mg/kg/injection, schedule: Q01DX001 (ip), vehicle: saline): 174 % of control | T/C (dose: 133.0 mg/kg/injection, schedule: Q10DX002 (ip), vehicle: saline): 168 % of control | T/C (dose: 200.0 mg/kg/injection, schedule: Q10DX002 (ip), vehicle: saline): 155 % of control

O=c1oc2c(O)c(O)cc3c(=O)oc4c(O)c(O)cc1c4c23
T/C [7]: 102 % of control | T/C [8]: 112 % of control | T/C [9]: 116 % of control | T/C [10]: 111 % of control | T/C [11]: 121 % of control

O=c1cc[nH]c(=O)[nH]1
T/C (dose: 32.0 mg/kg/injection, schedule: Q01DX009 (ip), vehicle: Klucel (hydroxypropylcellulose) (HPC)): 105 % of control | T/C (dose: 64.0 mg/kg/injection, schedule: Q01DX009 (ip), vehicle: Klucel (hydroxypropylcellulose) (HPC)): 96 % of control | T/C (dose: 128.0 mg/kg/injection, schedule: Q01DX009 (ip), vehicle: Klucel (hydroxypropylcellulose) (HPC)): 102 % of control | T/C (dose: 256.0 mg/kg/injection, schedule: Q01DX009 (ip), vehicle: Klucel (hydroxypropylcellulose) (HPC)): 86 % of control | T/C (dose: 512.0 mg/kg/injection, schedule: Q01DX009 (ip), vehicle: Klucel (hydroxypropylcellulose) (HPC)): 111 % of control

CCCCCCCCCCCCCCCC[N+]1(C)CCN(SN2CC[N+](C)(CCCCCCCCCCCCCCCC)CC2)CC1
T/C [4]: 109 % of control | T/C [5]: 100 % of control | T/C [6]: 104 % of control

CC(=O)OC1C2(CC3N4C(=O)C5(CO)SSC4(CC31O)C(=O)N5C)OC(C)C(C)(C)C2=O (stereo not drawn)
T/C (dose: 0.62 mg/kg/injection, schedule: Q01DX009 (ip), vehicle: saline): 171 % of control

C[N+](C)(C)c1ncnc2nc[nH]c12
T/C (dose: 50.0 mg/kg/injection, schedule: Q01DX009 (ip), vehicle: saline): 103 % of control | T/C [12]: 100 % of control | T/C [13]: 103 % of control

Cc1c(N)nc([C@H](CC(N)=O)NC[C@H](N)C(N)=O)nc1C(=O)N[C@H](C(=O)N[C@H](C)[C@@H](O)CC(=O)N[C@H](C(=O)NC(O[C@@H]1O[C@@H](C)[C@@H](N)[C@@H](O)[C@H]1O)C(O)c1nc(-c2nc(C(=O)NCCCCN)cs2)cs1)[C@@H](C)O)[C@@H](O[C@@H]1O[C@@H](CO)[C@@H](O)[C@H](O)[C@@H]1O[C@H]1O[C@H](CO)[C@@H](O)[C@H](OC(N)=O)[C@@H]1O)c1c[nH]cn1 (stereo partly drawn)
T/C (dose: 1.0 mg/kg/injection, schedule: Q01DX009 (ip), vehicle: saline): 109 % of control | T/C (dose: 2.0 mg/kg/injection, schedule: Q01DX009 (ip), vehicle: saline): 114 % of control

CCCCc1ccc2nc(NC(=O)OC)[nH]c2c1
T/C (dose: 6.25 mg/kg/injection, schedule: Q01DX009 (ip), vehicle: saline with Tween-80): 94 % of control | T/C [3]: 92 % of control | T/C [4]: 103 % of control | T/C [5]: 102 % of control | T/C [6]: 107 % of control

Nc1nc(SCc2ccccc2)c2ncn(C3OC(CO)CC3O)c2n1 (stereo not drawn)
T/C [9]: 109 % of control

CN1CCN(CCCN2c3ccccc3Sc3ccc(C(F)(F)F)cc32)CC1
T/C (dose: 3.12 mg/kg/injection, schedule: Q01DX009 (ip), vehicle: saline): 109 % of control | T/C (dose: 6.25 mg/kg/injection, schedule: Q01DX009 (ip), vehicle: saline): 120 % of control | T/C (dose: 12.5 mg/kg/injection, schedule: Q01DX009 (ip), vehicle: saline): 109 % of control

CN(C)c1ccc2c(SCC(=O)OCC(=O)[C@@]3(O)CC[C@H]4[C@@H]5CCC6=CC(=O)C=C[C@]6(C)[C@H]5C(=O)C[C@@]43C)c3ccc(N(C)C)cc3nc2c1
T/C [8]: 104 % of control | T/C [9]: 106 % of control | T/C [10]: 107 % of control | T/C (dose: 200.0 mg/kg/injection, schedule: Q01DX009 (ip), vehicle: Klucel (hydroxypropylcellulose) (HPC)): 102 % of control | T/C [11]: 107 % of control

Nc1n[nH]c(N)n1
T/C [12]: 90 % of control | T/C [13]: 103 % of control | T/C (dose: 400.0 mg/kg/injection, schedule: Q01DX009 (ip), vehicle: saline): 96 % of control | T/C (dose: 800.0 mg/kg/injection, schedule: Q01DX009 (ip), vehicle: saline): 119 % of control

CC12C(=O)C=CCC1=CCC1C2CCC2(O)C(=O)OC3(C)C4CC5(C)C(COC16OC23C5C6=O)C(=O)O4 (stereo not drawn)
T/C [8]: 101 % of control | T/C [9]: 100 % of control | T/C [10]: 105 % of control

O=C(Nc1nncs1)c1cccs1
T/C [3]: 95 % of control | T/C [4]: 104 % of control | T/C [5]: 92 % of control | T/C [6]: 94 % of control | T/C (dose: 200.0 mg/kg/injection, schedule: Q01DX009 (ip), vehicle: saline with Tween-80): 98 % of control | T/C (dose: 400.0 mg/kg/injection, schedule: Q01DX009 (ip), vehicle: saline with Tween-80): 95 % of control

O=C1C(=O)c2ccccc2C(O)=C1CC=C(Cl)Cl
T/C [7]: 104 % of control | T/C [8]: 93 % of control | T/C [9]: 91 % of control
